Measured values as given in US10233205B2, “Magnetic resonance imaging contrast agent capable of detecting hydrogen peroxide and reducing reactive oxygen species” (Auburn University, priority 2015, dated 2019).

Experiment: DPPH free radical scavenging assay
Assay type: biochemical
Conditions: Example 1
Experimental: An alternative assessment of the Mn(II) complexes' anti-oxidant properties relied upon the DPPH assay. Aqueous solutions of either 1, 2, or ascorbic acid were added to a solution of 0.10 mM DPPH in MeOH, such that the final reaction volume was 0.2 mL. Samples were incubated in the dark for 30 min at room temperature. Spectrophotometric measurements were subsequently performed at 517 nm using a Molecular Devices Spectramax Plus. This wavelength corresponds to the λmax of the reduced product. Experiments were performed in triplicate and repeated twice.
The anti-oxidant properties of 1 and 2 were also assessed using the DPPH assay (DPPH=2,2-diphenyl-1-picrylhydrazyl radical hydrate), which evaluates the ability of a compound to donate hydrogen atoms to DPPH to yield the corresponding hydrazine. The anti-oxidants were added to DPPH and incubated in the dark for 30 min at room temperature. Spectroscopic measurements were performed at 517 nm. The data were normalized to the absorbance in the presence of vehicle. All experiments were performed in triplicate and repeated twice.
Complex 3 is also a competent […] as assessed by the DPPH assay (FIG. 33), which tests the abilities of compounds to donate hydrogen atoms to 2,2-diphenyl-1-picrylhydrazyl radical hydrate. […] The data were normalized to the absorbance in the presence of vehicle. […] The hydrazine product is monitored by UV/vis.

CC#N.Cc1ccc(O)c(CN(CCN(Cc2ccccn2)Cc2ccccn2)Cc2ccccn2)c1.[Mn+2].[O-][Cl+3]([O-])([O-])[O-].[O-][Cl+3]([O-])([O-])[O-] [Complex 2, reference compound]
DPPH reduction: fails to reduce DPPH to a noticeable degree
